In US4657892A, “Pharmacologically active peptides” (priority 1983, dated 1987):
Entries after “also recorded” stand apart in the source; their conditions may differ. Like-named read-outs stand apart in the source and are kept apart here. Non-standard residues stand in square brackets, D forms with d. Residues, ends and D or L forms follow the SMILES beside them.

What was measured:
[1] = test system: isolated guinea-pig ileum; experiment: opioid activity in the electrically stimulated guinea-pig ileum preparation; assay type: cell-based; settings: for rel. value Der. = 100 / rel. value Nor. = 100: relative potency; for rel. value Der. = 100: dermorphin IC50 = 100%; for rel. value Nor. = 100: normorphine IC50 = 100%
Description: As biological test system for determination of the opioid activity the ileum preparation of the guinea-pig was used (detailed description German application No. 29 21 216, p. 24). […] In addition for a better understanding the IC50 -value can be expressed as 100% for the opiates normorphine and dermorphin (DT-OS No. 30 34 897) and the relative activity of the single substances can be given in comparison to normorphine or dermorphine. The indication of the relative potency has the advantage that by this variations of the sensitivity of the assay are neutralized.
The (*) marked values of table 1 correspond to those which have been described by Castiglione et al. (Peptides, 2, p. 266, table 1, substances 1 and 3: column GPI=guinea-pig ileum preparation).
IC50 -values (nM), see description, of two peptides of the invention (III an IV) in comparison to those of the prior art (dermorphin,I,II) as measured in the isolated guinea-pig ileum. […] The inhibiting effect of the substances I, II, III, and IV was antagonized by addition of the specific opiate antagonist naloxone (final concentration in the organ bath 900 nM); upon further addition of the substances I to IV to the organ bath (in presence of naloxone) no further inhibition could be observed; the inhibiting effect of the substances I-IV has therefore to be considered as specific opiate-like.

α-chymotrypsin = target: T1, α-chymotrypsin (Bos taurus, UniProt P00766, DEL14-15/DEL147-148); experiment: enzymatic stability against α-chymotrypsin, remaining activity assayed on guinea-pig ileum; assay type: in vitro ADME; settings: 1 mg peptide, 50 μg α-chymotrypsin, Krebs-Ringer solution, 5 hours at 37° C.
T1 construct: purchased Serva, Heidelberg
Description: 1 mg of each of the peptides dermorphin, I, II, III and IV (table 1) were dissolved in 1 ml freshly prepared Krebs-Ringer solution and mixed together with 50 μg α-chymotrypsin (Serva, Heidelberg, dissolved in 50 μl Krebs-Ringer solution); immediately after mixing, a 100 μl aliquot was removed and heated up to 95° C. for 15 minutes. (The heating was employed in order to inactivate the enzyme). This aliquot removed, will be later used for reference as initial value (Zero-value of incubation time). The remaining 950 μl of the peptide/enzyme mixture were incubated for 5 hours at 37° C.; the incubation period was also terminated by heating up to 95° C.
After centrifugation identical aliquots of the supernatants were assayed quantitatively for their opiate-like effect and compared with the zero-value; and guinea-pig ileum was also used as assay system (as above described).

[2] = test system: isolated guinea-pig ileum; settings: * marked, from Castiglione et al., Peptides 2, p. 266, read-out: IC50 (* values described by Castiglione et al.); cited from earlier work

| Compound | rel. value Der. = 100 [1] | rel. value Nor. = 100 [1] | opiate-like activity remaining after incubation with α-chymotrypsin compared to zero-value (α-chymotrypsin) | IC50 [2] [µM] | IC50 ([1]; Cavia porcellus, isolated guinea-pig ileum, 7 experiments, read-out: IC50 (inhibition of electrically induced contractions by 50%)) [µM] |
| --- | --- | --- | --- | --- | --- |
| C[C@@H](NC(=O)[C@@H](N)Cc1ccc(O)cc1)C(=O)N[C@@H](Cc1ccccc1)C(=O)NCC(=O)N[C@@H](Cc1ccc(O)cc1)C(=O)N1CCC[C@H]1C(=O)N[C@@H](CO)C(N)=O [Dermorphin] | 100 | 3143 | nearly fully destroyed | 0.0035 | – |
| Oc1ccc2c3c1O[C@H]1[C@@H](O)C=C[C@H]4[C@@H](C2)NCC[C@@]341 [Normorphine] | 3.2 | 100 | – | – | 0.11 |
| C[C@@H](NC(=O)[C@@H](N)Cc1ccc(O)cc1)C(=O)N[C@@H](Cc1ccccc1)C(=O)N1CCC[C@H]1C(=O)N[C@@H](Cc1ccc(O)cc1)C(N)=O [Substance I, Tyr--D-Ala--Phe--Pro--Tyr--NH2] (H-Y[dA]FPY-NH2) | – | – | higher stability than substance II | – | – |
| C[C@@H](NC(=O)[C@@H](N)Cc1ccc(O)cc1)C(=O)N[C@@H](Cc1ccccc1)C(=O)NCC(=O)N[C@@H](Cc1ccc(O)cc1)C(N)=O [Substance II, Tyr--D-Ala--Phe--Gly--Tyr--NH2] (H-Y[dA]FGY-NH2) | – | – | nearly fully destroyed | – | – |
| C[C@@H](NC(=O)[C@H](Cc1ccccc1)NC(=O)[C@@H](C)NC(=O)[C@@H](N)Cc1ccc(O)cc1)C(=O)N[C@@H](Cc1ccc(O)cc1)C(N)=O [Substance III, Tyr--D-Ala--Phe--D-Ala--Tyr--NH2] (H-Y[dA]F[dA]Y-NH2) | – | – | higher stability towards proteolytic enzymes (compared to II); also recorded: full opiate-like activity | – | – |
| C[C@@H](NC(=O)[C@H](Cc1ccccc1)NC(=O)[C@@H](C)NC(=O)[C@@H](N)Cc1ccc(O)cc1)C(=O)N[C@@H](Cc1ccccc1)C(N)=O [Substance IV, Tyr--D-Ala--Phe--D-Ala--Phe--NH2] (H-Y[dA]F[dA]F-NH2) | – | – | full opiate-like activity | – | – |
